Measurements reported in ChEMBL document CHEMBL5303573, “Mapping human microbiome drug metabolism by gut bacteria and their genes” (Nature, 2019).

Tests used:
[1] = anaerostipes sp., 12 h, 2 µM
Description: The drug is tested on Anaerostipes sp. strain: fecal isolate for biotransformation. The drug concentrations were measured before and after a 12-h incubation by liquid-chromatography-coupled mass spectrometry (LC–MS)

[2] = The drug is tested on Clostridium sp. strain: fecal isolate for biotransformation. The drug concentrations were measured before and after a 12-h incubation by liquid-chromatography-coupled mass spectrometry (LC–MS); settings: 2 µM
[3] = The drug is tested on Anaerococcus hydrogenalis strain: DSM7454 for biotransformation. The drug concentrations were measured before and after a 12-h incubation by liquid-chromatography-coupled mass spectrometry (LC–MS); settings: 2 µM
[4] = The drug is tested on Clostridium scindens strain: ATCC35704 for biotransformation. The drug concentrations were measured before and after a 12-h incubation by liquid-chromatography-coupled mass spectrometry (LC–MS); settings: 2 µM
[5] = The drug is tested on Providencia rettgeri strain: DSM1131 for biotransformation. The drug concentrations were measured before and after a 12-h incubation by liquid-chromatography-coupled mass spectrometry (LC–MS); format: ADME; design: dose 2 uM, timepoint 0 vs 12 hours; settings: 2 µM
[6] = bacteroides stercoris, 12 h, 2 µM
Description: The drug is tested on Bacteroides stercoris strain: ATCC43183 for biotransformation. The drug concentrations were measured before and after a 12-h incubation by liquid-chromatography-coupled mass spectrometry (LC–MS)

[7] = parabacteroides distasonis, 12 h, 2 µM
Description: The drug is tested on Parabacteroides distasonis strain: ATCC8503 for biotransformation. The drug concentrations were measured before and after a 12-h incubation by liquid-chromatography-coupled mass spectrometry (LC–MS)

[8] = akkermansia muciniphila, 12 h, 2 µM
Description: The drug is tested on Akkermansia muciniphila strain: ATCC BAA-835 for biotransformation. The drug concentrations were measured before and after a 12-h incubation by liquid-chromatography-coupled mass spectrometry (LC–MS)

[9] = The drug is tested on Bacteroides fragilis strain: HMW615 for biotransformation. The drug concentrations were measured before and after a 12-h incubation by liquid-chromatography-coupled mass spectrometry (LC–MS); settings: 2 µM
[10] = The drug is tested on Ruminococcus lactaris strain: ATCC29176 for biotransformation. The drug concentrations were measured before and after a 12-h incubation by liquid-chromatography-coupled mass spectrometry (LC–MS); settings: 2 µM
[11] = The drug is tested on Blautia luti strain: DSM14534 for biotransformation. The drug concentrations were measured before and after a 12-h incubation by liquid-chromatography-coupled mass spectrometry (LC–MS); format: ADME; design: dose 2 uM, timepoint 0 vs 12 hours; settings: 2 µM
[12] = The drug is tested on Bacteroides fragilis strain: HMW610 for biotransformation. The drug concentrations were measured before and after a 12-h incubation by liquid-chromatography-coupled mass spectrometry (LC–MS); settings: 2 µM
[13] = roseburia intestinalis, 12 h, 2 µM
Description: The drug is tested on Roseburia intestinalis strain: L1-82 for biotransformation. The drug concentrations were measured before and after a 12-h incubation by liquid-chromatography-coupled mass spectrometry (LC–MS)

[14] = bacteroides eggerthii, 12 h, 2 µM
Description: The drug is tested on Bacteroides eggerthii strain: DSM20697 for biotransformation. The drug concentrations were measured before and after a 12-h incubation by liquid-chromatography-coupled mass spectrometry (LC–MS)

[15] = parabacteroides johnsonii, 12 h, 2 µM
Description: The drug is tested on Parabacteroides johnsonii strain: DSM18315 for biotransformation. The drug concentrations were measured before and after a 12-h incubation by liquid-chromatography-coupled mass spectrometry (LC–MS)

[16] = bacteroides fragilis, 12 h, 2 µM
Description: The drug is tested on Bacteroides fragilis strain: DS-208 for biotransformation. The drug concentrations were measured before and after a 12-h incubation by liquid-chromatography-coupled mass spectrometry (LC–MS)

[17] = bacteroides thetaiotaomicron, 12 h, 2 µM
Description: The drug is tested on Bacteroides thetaiotaomicron strain: VPI-5482 for biotransformation. The drug concentrations were measured before and after a 12-h incubation by liquid-chromatography-coupled mass spectrometry (LC–MS)

[18] = The drug is tested on Bacteroides vulgatus strain: ATCC8482 for biotransformation. The drug concentrations were measured before and after a 12-h incubation by liquid-chromatography-coupled mass spectrometry (LC–MS); settings: phocaeicola vulgatus, 2 µM

SMILES	Bacterial Biotransformation [1]	Bacterial Biotransformation [2]	Bacterial Biotransformation [3]	Bacterial Biotransformation [4]	Bacterial Biotransformation [5]	Bacterial Biotransformation [6]	Bacterial Biotransformation [7]	Bacterial Biotransformation [8]	Bacterial Biotransformation [9]	Bacterial Biotransformation [10]	Bacterial Biotransformation [11]	Bacterial Biotransformation [12]	Bacterial Biotransformation [13]	Bacterial Biotransformation [14]	Bacterial Biotransformation [15]	Bacterial Biotransformation [16]	Bacterial Biotransformation [17]	Bacterial Biotransformation [18]
CN1CC(=O)N2[C@H](c3ccc4c(c3)OCO4)c3[nH]c4ccccc4c3C[C@@H]2C1=O	Compound NOT metabolized	Compound NOT metabolized	Compound NOT metabolized	Compound NOT metabolized	Compound NOT metabolized	Compound NOT metabolized	Compound NOT metabolized	Compound NOT metabolized	Compound metabolized	Compound NOT metabolized	Compound NOT metabolized	Compound metabolized	Compound NOT metabolized	Compound NOT metabolized				
CCc1cccc2c3c([nH]c12)C(CC)(CC(=O)O)OCC3 (stereo unspecified) [ETODOLAC]	Compound NOT metabolized	Compound NOT metabolized	Compound NOT metabolized	Compound NOT metabolized	Compound NOT metabolized	Compound NOT metabolized	Compound NOT metabolized	Compound NOT metabolized	Compound metabolized	Compound NOT metabolized	Compound NOT metabolized			Compound NOT metabolized	Compound NOT metabolized	Compound metabolized	Compound metabolized	
N=C(N)NC(=O)Cc1c(Cl)cccc1Cl [GUANFACINE]	Compound NOT metabolized		Compound NOT metabolized		Compound NOT metabolized	Compound NOT metabolized	Compound NOT metabolized		Compound NOT metabolized	Compound NOT metabolized	Compound NOT metabolized	Compound NOT metabolized	Compound NOT metabolized	Compound NOT metabolized	Compound NOT metabolized	Compound NOT metabolized	Compound NOT metabolized	Compound NOT metabolized
O=C([O-])C[C@H](O)C[C@H](O)/C=C/c1c(C2CC2)nc2ccccc2c1-c1ccc(F)cc1.O=C([O-])C[C@H](O)C[C@H](O)/C=C/c1c(C2CC2)nc2ccccc2c1-c1ccc(F)cc1.[Ca+2] [PITAVASTATIN CALCIUM]	Compound NOT metabolized	Compound NOT metabolized	Compound NOT metabolized	Compound NOT metabolized	Compound NOT metabolized	Compound NOT metabolized	Compound NOT metabolized	Compound NOT metabolized	Compound NOT metabolized	Compound NOT metabolized	Compound NOT metabolized	Compound NOT metabolized		Compound NOT metabolized	Compound NOT metabolized	Compound NOT metabolized	Compound NOT metabolized	Compound NOT metabolized
CNNCc1ccc(C(=O)NC(C)C)cc1 [PROCARBAZINE]	Compound NOT metabolized	Compound NOT metabolized	Compound NOT metabolized	Compound NOT metabolized	Compound NOT metabolized	Compound NOT metabolized	Compound NOT metabolized	Compound NOT metabolized	Compound metabolized	Compound NOT metabolized	Compound NOT metabolized	Compound metabolized	Compound NOT metabolized		Compound metabolized		Compound NOT metabolized	Compound NOT metabolized
O=C(O)CCC(=O)O.O=C(O[C@H]1CN2CCC1CC2)N1CCc2ccccc2[C@@H]1c1ccccc1 [SOLIFENACIN SUCCINATE]	Compound NOT metabolized	Compound NOT metabolized	Compound NOT metabolized	Compound NOT metabolized	Compound NOT metabolized	Compound NOT metabolized	Compound NOT metabolized	Compound NOT metabolized	Compound NOT metabolized	Compound NOT metabolized	Compound NOT metabolized	Compound NOT metabolized	Compound NOT metabolized	Compound NOT metabolized	Compound NOT metabolized	Compound NOT metabolized		
O=C(CCCN1CCC2(CC1)C(=O)NCN2c1ccccc1)c1ccc(F)cc1 [SPIPERONE]	Compound NOT metabolized	Compound NOT metabolized	Compound NOT metabolized	Compound NOT metabolized		Compound NOT metabolized		Compound NOT metabolized	Compound NOT metabolized	Compound NOT metabolized	Compound NOT metabolized	Compound NOT metabolized		Compound NOT metabolized		Compound NOT metabolized	Compound NOT metabolized	
CCN1CCCC1CNC(=O)c1cc(S(N)(=O)=O)ccc1OC (stereo unspecified) [SULPIRIDE]	Compound NOT metabolized	Compound NOT metabolized	Compound NOT metabolized	Compound NOT metabolized	Compound NOT metabolized	Compound NOT metabolized		Compound NOT metabolized		Compound NOT metabolized	Compound NOT metabolized	Compound metabolized	Compound NOT metabolized	Compound NOT metabolized	Compound NOT metabolized			Compound NOT metabolized
CNS(=O)(=O)Cc1ccc2[nH]cc(CCN(C)C)c2c1.O=C(O)CCC(=O)O [SUMATRIPTAN SUCCINATE]	Compound NOT metabolized	Compound NOT metabolized	Compound NOT metabolized	Compound NOT metabolized	Compound NOT metabolized		Compound NOT metabolized	Compound NOT metabolized		Compound NOT metabolized	Compound NOT metabolized	Compound metabolized	Compound NOT metabolized	Compound NOT metabolized	Compound NOT metabolized	Compound metabolized	Compound metabolized	Compound NOT metabolized
CC(CN(C)C)CN1c2ccccc2CCc2ccccc21.O=C(O)/C=C\C(=O)O (stereo unspecified) [TRIMIPRAMINE MALEATE]	Compound NOT metabolized	Compound NOT metabolized	Compound NOT metabolized		Compound NOT metabolized	Compound NOT metabolized	Compound NOT metabolized	Compound NOT metabolized	Compound NOT metabolized	Compound NOT metabolized	Compound NOT metabolized	Compound NOT metabolized	Compound NOT metabolized	Compound NOT metabolized	Compound NOT metabolized	Compound NOT metabolized		Compound NOT metabolized
CCN(C(C)=O)c1cccc(-c2ccnc3c(C#N)cnn23)c1 [ZALEPLON]		Compound metabolized	Compound NOT metabolized	Compound NOT metabolized	Compound NOT metabolized	Compound NOT metabolized	Compound NOT metabolized	Compound NOT metabolized	Compound metabolized	Compound NOT metabolized	Compound NOT metabolized	Compound metabolized		Compound NOT metabolized		Compound NOT metabolized		Compound metabolized
